In patent US5760036A, “Aminediol protease inhibitors” (E. R. Squibb & Sons, Inc., priority 1995, dated 1998):
Structures can show the parent of a compound that is named as a salt. Where two headings read alike, the source gives them in different places.

Tests used:
[1] = system: RF strain of HIV (CEM-SS cells); assay: Cell Culture Anti-HIV Activity (cell viability, formazan); assay type: cell-based; details: CEM-SS cells, RF strain of HIV, multiplicity of infection 0.04, 6 days at 37° C., 450 nm, read-out: HIV (CEM Cells) IC50
Experimental: The antiviral activity of aminediol inhibitors of the present invention was evaluated by a microculture method which determines the increase in cell viability of an infected culture when a drug is added. The assay depends on the metabolic reduction of tetrazolium reagent by viable cells to yield a soluble colored formazan product.
The assay was performed as follows: suspensions of CEM-SS cells (5000/well) were infected with the RF strain of HIV at a multiplicity of infection at 0.04 in a 96-well plate. The compounds of the present invention listed in the following Table 1, serially diluted in half-log fashion, were added to the infected and uninfected control cells. Untreated (infected and uninfected) cells were included as controls. Following incubation for 6 days at 37° C., viable cells in each well were quantitated by the visible light absorbance at 450 nm.
The IC50 was calculated as the concentration of drug that increased the formazan production in virally infected cells to 50% of that produced by uninfected cells in the absence of drug.

[2] = target: T1, HIV protease (Human immunodeficiency virus type 1 group M subtype B, UniProt P04585); assay: HIV Protease Assay; assay type: biochemical
T1 construct: and purified protease
Outline: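 Purified protease cleaved 450 μM octapeptide substrate in 50 mM sodium acetate pH 5.5 with 100 μg/ml BSA for 30 minutes at 37° C; product analyzed by reverse-phase HPLC at UV220 after H3PO4 quench. Inhibitors tested at final 10 μM with 4% DMSO.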

[3] = Human immunodeficiency virus 1, CEM-SS, 144 h
[4] = pH 5.5, 10 μM inhibitor, 4% DMSO, 450 μM substrate, pH 5.5, 30 minutes at 37° C., RP-HPLC, read-out: HIV Protease % Inhibition at 10 μM

| SMILES | inhibition at 10 µM [2, 4] | HIV Protease % Inhibition at 10 μM [2] | inhibition at 10 µM ([2]; pH 5.5, read-out: HIV Protease % Inhibition at 10 μM) | IC50 [1, 3] | IC50 [1] |
| --- | --- | --- | --- | --- | --- |
| CC(C)[C@H](NC(=O)[C@@H](C)O)C(=O)N[C@@H](Cc1ccccc1)[C@H](O)CNC[C@@H](O)[C@H](Cc1ccccc1)NC(=O)OC(C)(C)C [Compound 221, [1S-[[1R*,2S*(2S*,3R*)],N^2-(S*) ]]-N-[3-[[3-[[(1,1-Dimethylethoxy)carbonyl]amino]-2-hydroxy-4-phenylbutyl]amino]-2-hydroxy-1-(phenylmethyl)propyl]-N^2-(2-hydroxy-1-oxopropyl)-L-valinamide] | 96% |  |  | 1100 nM |  |
| CC(C)(C)OC(=O)N[C@@H](Cc1ccccc1)[C@H](O)CNC[C@@H](O)[C@H](Cc1ccccc1)NC(=O)OC1(C)CCOCC1 [Compound 166, [1S-(1R*,2S*)]-[Iminobis[2-hydroxy-1-(phenylmethyl)-3,1-propanediyl]]bis[carbamic acid], 1,1-dimethylethyl-4-methyltetrahydropyran-4-yl-ester] | 89% |  |  | 1700 nM |  |
| C[C@@H](O)[C@H](NC(=O)OCc1ccccc1)C(=O)N[C@@H](Cc1ccccc1)[C@H](O)CNC[C@@H](O)[C@H](Cc1ccccc1)NC(=O)OC(C)(C)C [Compound 100, [S-[1R*,2S*(2S*,3R*)]-N-[3-[[3-[[(1,1-Dimethylethoxy)carbonyl]amino]-2-hydroxy-4-phenylbutyl]amino]-2-hydroxy-1-(phenylmethyl)-propyl]-N^2 [(phenylmethoxy)carbonyl]-L-threoninamide] | 99% |  |  | 230 nM |  |
| CC(C)(C)OC(=O)N[C@@H](Cc1ccccc1)[C@H](O)CNC[C@@H](O)[C@H](Cc1ccccc1)NC(=O)OC(C)(C)CF [Compound 252, [1S-(1R*,2S*)]-[Iminobis[2-hydroxy-1-(phenylmethyl)-3,1-propanediyl]]biscarbamic acid 2-fluoro-1,1-dimethylethyl 1,1-dimethylethyl ester] | 99% |  |  | 60 nM |  |
| CC(C)(C)OC(=O)N[C@@H](Cc1ccccc1)[C@H](O)CNC[C@@H](O)[C@H](Cc1ccccc1)NC(=O)OC(C)(C)C#CCCc1ccccc1 [Compound 155, [1S-(1R*,2S*)]-[Iminobis[2-hydroxy-1-(phenylmethyl)-3,1-propanediyl]biscarbamic acid, 1,1-dimethylethyl 1,1-dimethyl-5-phenyl-2-pentynyl ester] | 95% |  |  | > 200 nM |  |
| CC(C)[C@H](NC(=O)OC1CCc2ccccc21)C(=O)N[C@@H](Cc1ccccc1)[C@H](O)CNC[C@@H](O)[C@H](Cc1ccccc1)NC(=O)OC(C)(C)C (stereo partly drawn) [Compound 67, [S-[1R*,2S*(2S*,3R*)]]-N^2-[[2,3-Dihydro-1H-inden-1-yl)oxy]carbonyl]-N-[3-[[3-[[(1,1-dimethylethoxy)carbonyl]amino]-2-hydroxy-4-phenylbutyl]amino]-2-hydroxy-1-(phenylmethyl)propyl]-L-valinamide] | 100% |  |  | 40 nM |  |
| CC(C)[C@H](NC(=O)CC(N)c1ccccc1)C(=O)N[C@@H](Cc1ccccc1)[C@H](O)CNC[C@@H](O)[C@H](Cc1ccccc1)NC(=O)OC(C)(C)C (stereo partly drawn) [Compound 86, [S-[1R*,2S*(2S*,3R*)]-N^2 (3-Amino-1-oxo-3-phenylpropyl)-N-[3-[[3-[[(1,1-dimethylethoxy)carbonyl]amino]-2-hydroxy-4-phenylbutyl]amino-[-2-hydroxy-1-(-phenylmethyl)propyl]-L-valinamide, fumarate (2:3) salt] | 78% |  |  | 1800 nM |  |
| COc1ccccc1C[C@H](NC(=O)OC(C)(C)C)[C@H](O)CNC[C@@H](O)[C@H](Cc1ccccc1)NC(=O)OC(C)(C)C [Compound 349, [1S-[1R*,2S*(2S*,3R*)]]-[3-[[3-1,1-Dimethylethoxy)-carbonyl]amino]-2-hydroxy-4-(2-methoxyphenyl)butyl]-amino]-2-hydroxy-1-(phenylmethyl)propyl]carbamic acid, 1,1-dimethylethyl ester] | 98% |  |  | 370 nM |  |
| CC(C)(C)OC(=O)N[C@@H](Cc1ccccc1)[C@H](O)CNC[C@@H](O)[C@H](Cc1ccccc1)NC(=O)C1(O)CCCC1(C)C (single isomer, unassigned; isomer b) [Compound 322, [1S-[1R*,2S*(2S*,3R*)]]-[3-[[3-[[2,2-Dimethyl-1-hydroxycyclopentyl)-carbonyl]amino]-2-hydroxy-4-phenylbutyl]amino]-2-hydroxy-1-(phenylmethyl)-propyl]carbamic acid, 1,1-dimethylethyl ester, isomer B] |  | 100% |  |  | 20 nM |
| CC(C)(C)OC(=O)N[C@@H](Cc1ccccc1)[C@H](O)CNC[C@@H](O)[C@H](Cc1ccc(OCCN2CCOC2=O)cc1)NC(=O)OC(C)(C)C [Compound 343, [1S-[1R*,2S*(2S*,3R*)]]-[1-[[[3-[[(1,1-Dimethylethoxy)carbonyl]amino]-2-hydroxy-4-[4-[2-(2-oxo-3-oxazolidinyl)ethoxy]phenyl]butyl]amino]-2-hydroxy-1-(phenylmethyl)propyl]carbamic acid, 1,1-dimethylethyl ester] | 99% |  |  | 50 nM |  |
| CC(C)(C)OC(=O)N[C@@H](Cc1ccccc1)[C@H](O)CNC[C@@H](O)[C@H](Cc1ccccc1)NC(=O)C1(O)CCCC1(C)C (single isomer, unassigned; isomer a) [Compound 321, [1S-[1R*,2S*(2S*,3R*)]]-[3-[[3-[[2,2-Dimethyl-1-hydroxycyclopentyl)-carbonyl]amino]-2-hydroxy-4-phenylbutyl]amino]-2-hydroxy-1-(phenylmethyl)propyl]carbamic acid, 1,1-dimethylethyl ester, isomer A] |  |  | 100% |  | 200 nM |

Continued, in another order:

| inhibition at 10 µM [2, 4] | HIV Protease % Inhibition at 10 μM [2] | inhibition at 10 µM ([2]; pH 5.5, read-out: HIV Protease % Inhibition at 10 μM) | SMILES | IC50 [1, 3] | IC50 [1] |
| --- | --- | --- | --- | --- | --- |
| 99% |  |  | CNC(=O)N(C)[C@H](C(=O)N[C@@H](Cc1ccccc1)[C@H](O)CNC[C@@H](O)[C@H](Cc1ccccc1)NC(=O)OC(C)(C)C)C(C)(C)C (relative stereo) [Compound 342, [1R*,2S* (2S*, 3R*)]-N-[3-[[3-[[(1,1-Dimethylethoxy)carbonyl]amino]-2-hydroxy-4-phenylbutyl]amino]-2-hydroxy-1-(phenylmethyl)propyl]-N^2-[(methylamino)carbonyl]-N^2-3-dimethyl-L-valinamide] | 70 nM |  |
| 96% |  |  | CC(C)[C@H](NC(=O)OCCO)C(=O)N[C@@H](Cc1ccccc1)[C@H](O)CNC[C@@H](O)[C@H](Cc1ccccc1)NC(=O)OC(C)(C)C (relative stereo) [Compound 218, [1R*,2S*(2S*,3R*)]-N-[3-[[3-[[(1,1-Dimethylethoxy)carbonyl]amino]-2-hydroxy-4-phenylbutyl]amino]-2-hydroxy-1-(phenylmethyl)propyl]-N^2-[(2-hydroxyethoxy)carbonyl]-L-valinamide] | 1100 nM |  |
| 92% |  |  | CC(C)(C)NC(=S)N[C@@H](Cc1ccccc1)[C@H](O)CNC[C@@H](O)[C@H](Cc1ccccc1)NC(=O)OC(C)(C)C [Compound 137, [1S-[1R*,2S*(2S*,3R*)]]-[3-[[3-[[[(1,1-Dimethylethyl)amino]thioxomethyl]amino]-2-hydroxy-4-phenylbutyl]amino]-2-hydroxy-1-(phenylmethyl))propyl]carbamic acid, 1,1-dimethylethyl ester] | > 2600 nM |  |
| 100% |  |  | CC(C)[C@H](NC(=O)CCn1[nH]c2ccccc2c1=O)C(=O)N[C@@H](Cc1ccccc1)[C@H](O)CNC[C@@H](O)[C@H](Cc1ccccc1)NC(=O)OC(C)(C)C (relative stereo) [Compound 250, [1R*,2S*(2S*,3R*)]-N^2-[3-(1,3-Dihydro-3-oxo-2H-indazol-2-yl)-1-oxopropyl]-N-[3-[[3-[[(1,1-dimethylethoxy)carbonyl]amino]-2-hydroxy-4-phenylbutyl]amino]-2-hydroxy-1-(phenylmethyl)propyl]-L-valinamide] | 1500 nM |  |
| 99% |  |  | COCCOc1ccc(C[C@H](NC(=O)OC(C)(C)C)[C@H](O)CNC[C@@H](O)[C@H](Cc2ccccc2)NC(=O)OC(C)(C)CO)cc1 [Compound 299, [1S-[1R*, 2S*(2S*,3R*)]-[3-[[(1,1-Dimethylethoxy)carbonyl]amino]-2-hydroxy-4-[4-(2-methoxyethoxy)phenyl]butyl]amino]-2-hydroxy-1-(phenylmethyl)propyl]carbamic acid, 1-(hydroxymethyl)-1-methylethyl ester] | 240 nM |  |
| 93% |  |  | CC(C)(C)OC(=O)N[C@@H](Cc1ccccc1)[C@H](O)CNC[C@@H](O)[C@H](Cc1ccccc1)NC(=O)OC(C)(C)CCCNC(=O)OCc1ccccc1 [Compound 150, [1S-(1R*,2S*)]-[Iminobis[2-hydroxy-1-(phenylmethyl)-3,1-propanediyl)]biscarbamic acid, 1,1-dimethylethyl 1,1-dimethyl-4-[[(phenylmethoxy)carbonyl]amino]butyl ester] | > 4000 nM |  |
